Structures can show the parent of a compound that is named as a salt. Where two headings read alike, the source gives them in different places.
Experiment: toxicity per os (LD50)
Format: in vivo
Excerpt: Furthermore, their toxicities are extremely low in comparison with previously known cytostatic and cancer retardant pharmaceuticals.

SMILES	LD50 [mg/kg]	LD50 (in vivo, po, read-out: LD50) [mg/kg]
Clc1ccc(C(c2ccccc2)N2CC[N+]3(CCOCC3)CC2)cc1.[Br-] (stereo not drawn) [X = Br, N^1-(4'-chlorobenzhydryl) -N^4-spiromorpholinopiperazinium bromide]	308.5	
Clc1ccc(C(c2ccccc2)N2CC[N+]3(CCOCC3)CC2)cc1 (stereo not drawn) [X = Cl, N^1-(4'-chlorobenzhydryl)-N^4-spiro-morpholino-piperazinium chloride-hydrochloride]		316
Clc1ccc(C(c2ccccc2)N2CC[N+]3(CCOCC3)CC2)cc1 (stereo not drawn) [X = I, N^1-(4'-chlorobenzhydryl)-N^4-spiromorpholinopiperazinium iodide]	276.7	

Source: patent US3996222A, “Piperazine derivatives” (CRC Compagnia de Ricerca Chimica, priority 1972, dated 1976)
